pEC50: −log10 of the molar value.
Legend:
[1] = tested on: HBV replication in HepAD38 cells; experiment: Anti-HBV replication assay in HepAD38 cells (QPCR of extracellular HBV DNA); assay type: cell-based, HBV (genotype D, serotype ayw); settings: Hepatitis B virus, 168 h, 7 days incubation, extracellular HBV DNA by QPCR, read-out: Anti-HBV EC50
Description: The anti-HBV activity of the Capsid Assembly Modulators (CAMs) was evaluated in a cell based assay utilizing the human hepatoma cell line HepAD38 (Ladner, S K., et al., 1998). HepAD38 cells were derived from the parental line, HepG2, that were stably transfected with a construct containing an HBV genome (genotype D, serotype ayw) under the control of a tetracycline repressible CMV promoter. Upon removal of tetracycline, viral pre-genomic RNA (pgRNA) and mRNAs are expressed and infectious viral particles are assembled and secreted into the culture medium providing a reliable, robust system to measure multiple steps of the HBV life cycle. Disruption of capsid formation results in reduced levels of DNA-containing virus particles that are released into the culture supernatant. To quantify the effect of CAMs on HBV replication, we developed a sensitive QPCR-based assay that measures extracellular HBV DNA levels upon treatment of HepAD38 cells with various concentrations of test compounds.
HepAD38 cells were maintained in DMEM/F12 medium containing 10% FBS, 400 μg/mL G418 and 0.3 μg/mL tetracycline (tet+ media) to maintain repression of HBV replication. To evaluate each compound, HepAD38 cells were seeded into 24-well collagen coated culture plates (Corning BioCoat) at a density of 200,000 cells per well in 1 mL of medium without tetracycline (tet-media) and allowed to adhere overnight at 37° C., 5% CO2 in a humidified incubator. The following day, media was refreshed and a dose range of each compound was prepared by performing 1 log10 serial dilutions in 100% DMSO at 200× the desired assay concentration. Dilutions were then added to the cells resulting in a final dose range of 1 μM to 10 μM and the plates were returned to the incubator. Following 7 days of incubation, culture supernatants were harvested and HBV DNA levels were evaluated by QPCR and compared to the vehicle treated control wells (i.e. DMSO alone).
To quantify HBV DNA levels, cell culture supernatants were diluted 1:10 in sterile, nuclease-free water (Gibco). The diluted supernatants were subsequently added to a PCR master mix containing 1× Roche Light Cycler Master Mix, 0.5 μM forward primer, 0.5 μM reverse primer (Fwd: 5′-[…] (SEQ ID NO 1); Rev: 5′-[…] (SEQ ID NO 2)), 0.2 μM Roche Universal Probe Library Probe 25. The volume was brought to 20 μL with nuclease-free water and amplification of the HBV target sequence was performed using a Roche LightCycler 480 QPCR instrument. PCR extended out to 45 cycles with each cycle consisting of a denaturation step at 95° C. for 10 sec., followed by an annealing step at 60° C. for 10 sec. and a brief extension step at 72° C. for 1 sec.
Extracellular HBV DNA levels, expressed in copies/mL, were determined by comparison to a standard curve (10^2-10^9 copies/mL) using the Roche LightCycler analysis software. These values were subsequently converted to percent inhibition of HBV replication by dividing the HBV DNA levels in the experimental samples with those obtained from the vehicle control (˜1-2×10^5 copies/mL). Potency, expressed as an EC50 (the effective concentration required to inhibit 50% of HBV replication), was calculated from the dose-response curve using a 4-parameter non-linear regression analysis (GraphPad Prism). The nucleoside analog inhibitor entecavir was used as a positive control to validate each assay run. The EC50 value of entecavir in the HepAD38 assay was 0.5 nM, as previously reported in the literature.

[2] = In vitro cytotoxicity assay (MTT cell viability) in HepG2 cells; assay type: cell-based, human; settings: human
Description: To evaluate antiviral selectivity, the cytotoxic activity of each compound was determined using a standard cell viability assay performed on the parental HepG2 cell line. Cell viability was determined by measuring the conversion of 3-(4,5-dimethylthiazol-2-yl)-2,5-diphenyltetrazolium bromide (MTT) to the insoluble formazan salt crystal that occurs in live cells. Briefly, HepG2 cells were seeded in 96-well plates at a density of 20,000 cells per well in EMEM+10% FBS (complete growth medium) and allowed to adhere overnight in a 37° C., 5% CO2 humidified incubator. The next day, test agents were prepared by performing 8 half-log10 serial dilutions in 100% DMSO at 200× the final desired concentration in the assay. Compounds were tested over a range of concentrations from 30 μM to 1.0 nM in the assay. HepG2 cells were incubated in the presence of various concentrations of CAMs for 7 days in a 37° C., 5% CO2 humidified incubator. At the completion of the 7-day incubation period, MTT reagent was added to each well and the mixture was incubated for an additional 3-4 hours. At the completion of the incubation period, all wells were aspirated to remove the culture medium. The formazan crystals were solubilized from the cell monolayers with 100% DMSO. Plates were briefly mixed on an orbital shaker and absorbance was measured at 492 nm using a Perkin-Elmer EnVision multi-label plate reader. All absorbance values were converted to a percentage of the signal obtained from the vehicle treated controls. Absorbance values at 492 nm are directly proportional to the number of viable cells present in the sample. A CC50 value (cytotoxic concentration that results in loss of 50% cell viability) was calculated from the dose-response curve by 4-parameter, non-linear regression analysis using the GraphPad Prism software. The positive control compound, staurosporine, reduced the viability of HepG2 cells in a dose-dependent manner (CC50=100 nM).

Compound | pEC50 [1] | CC50 at 7 days [2] [nM]
Cc1cc(NC(=O)c2c(C)c(C(=O)C(=O)NC3(C(N)=O)CCCC3)n(C)c2C)ccc1F [Example 38, 5-(2-((1-carbamoylcyclopentyl)amino)-2-oxoacetyl)-N-(4-fluoro-3-methylphenyl)-1,2,4-trimethyl-1H-pyrrole-3-carboxamide] | > 7.30 | > 30000
Cc1cc(NC(=O)c2c(C)c(C(=O)C(=O)N[C@H](C(N)=O)C(C)(C)C)n(C)c2C)ccc1F [Example 39, (S)-5-(2-((1-amino-3,3-dimethyl-1-oxobutan-2-yl)amino)-2-oxoacetyl)-N-(4-fluoro-3-methylphenyl)-1,2,4-trimethyl-1H-pyrrole-3-carboxamide] | 6.00 to 6.30 | > 30000
Cc1cc(NC(=O)c2c(C)c(C(=O)C(=O)N[C@@H](C(N)=O)C(C)(C)C)n(C)c2C)ccc1F [Example 40, (R)-5-(2-((1-amino-3,3-dimethyl-1-oxobutan-2-yl)amino)-2-oxoacetyl)-N-(4-fluoro-3-methylphenyl)-1,2,4-trimethyl-1H-pyrrole-3-carboxamide] | 6.00 to 6.30 | 500 to 4990
Cc1cc(NC(=O)c2c(C)c(C(=O)C(=O)N[C@@H](CO)C(N)=O)n(C)c2C)ccc1F [Example 41, (S)-5-(2-((1-amino-3-hydroxy-1-oxopropan-2-yl)amino)-2-oxoacetyl)-N-(4-fluoro-3-methylphenyl)-1,2,4-trimethyl-1H-pyrrole-3-carboxamide] | > 7.30 | 500 to 4990
Cc1cc(NC(=O)c2c(C)c(C(=O)C(=O)N[C@H](C(N)=O)[C@@H](C)O)n(C)c2C)ccc1F [Example 42, 5-(2-(((2S,3R)-1-amino-3-hydroxy-1-oxobutan-2-yl)amino)-2-oxoacetyl)-N-(4-fluoro-3-methylphenyl)-1,2,4-trimethyl-1H-pyrrole-3-carboxamide] | > 7.30 | > 30000
Cc1cc(NC(=O)c2c(C)c(C(=O)C(=O)NC3(C(N)=O)C4CC5CC(C4)CC3C5)n(C)c2C)ccc1F (stereo not drawn) [Example 43, 5-(2-(((1r,3r,5r,7r)-2-carbamoyladamantan-2-yl)amino)-2-oxoacetyl)-N-(4-fluoro-3-methylphenyl)-1,2,4-trimethyl-1H-pyrrole-3-carboxamide] | > 7.30 | 500 to 4990
Cc1cc(NC(=O)c2c(C)c(C(=O)C(=O)N[C@@H](C(N)=O)[C@H](C)O)n(C)c2C)ccc1F [Example 44, 5-(2-(((2R,3S)-1-amino-3-hydroxy-1-oxobutan-2-yl)amino)-2-oxoacetyl)-N-(4-fluoro-3-methylphenyl)-1,2,4-trimethyl-1H-pyrrole-3-carboxamide] | > 7.30 | > 30000
COC(=O)[C@@H](NC(=O)C(=O)c1c(C)c(C(=O)Nc2ccc(F)c(C)c2)c(C)n1C)[C@H](C)O [Example 45, methyl (2-(4-((4-fluoro-3-methylphenyl)carbamoyl)-1,3,5-trimethyl-1H-pyrrol-2-yl)-2-oxoacetyl)-L-allothreoninate] | 6.00 to 6.30 | > 30000
COC(=O)[C@H](NC(=O)C(=O)c1c(C)c(C(=O)Nc2ccc(F)c(C)c2)c(C)n1C)[C@@H](C)O [Example 46, methyl (2-(4-((4-fluoro-3-methylphenyl)carbamoyl)-1,3,5-trimethyl-1H-pyrrol-2-yl)-2-oxoacetyl)-D-allothreoninate] | > 7.30 | > 30000
Cc1cc(NC(=O)c2c(C)c(C(=O)C(=O)N3CCC(O)CC3)n(C)c2C)ccc1F [Example 47, N-(4-fluoro-3-methylphenyl)-5-(2-(4-hydroxypiperidin-1-yl)-2-oxoacetyl)-1,2,4-trimethyl-1H-pyrrole-3-carboxamide] | 6.30 to 7.30 | 500 to 4990
Cc1cc(NC(=O)c2c(C)c(C(=O)C(=O)N3[C@@H]4CC[C@H]3C[C@H](O)C4)n(C)c2C)ccc1F [Example 48, N-(4-fluoro-3-methylphenyl)-5-(2-((1R,3s,5S)-3-hydroxy-8-azabicyclo[3.2.1]octan-8-yl)-2-oxoacetyl)-1,2,4-trimethyl-1H-pyrrole-3-carboxamide] | 6.30 to 7.30 | > 30000
Cc1cc(NC(=O)c2c(C)c(C(=O)C(=O)N3CCc4nc(N)sc4C3)n(C)c2C)ccc1F [Example 49, 5-(2-(2-amino-6,7-dihydrothiazolo[5,4-c]pyridin-5(4H)-yl)-2-oxoacetyl)-N-(4-fluoro-3-methylphenyl)-1,2,4-trimethyl-1H-pyrrole-3-carboxamide] | 6.30 to 7.30 | > 30000
Cc1cc(NC(=O)c2c(C)c(C(=O)C(=O)NC(C)(C)CO)n(CCO)c2C)ccc1F [Example 50, N-(4-fluoro-3-methylphenyl)-5-(2-((1-hydroxy-2-methylpropan-2-yl)amino)-2-oxoacetyl)-1-(2-hydroxyethyl)-2,4-dimethyl-1H-pyrrole-3-carboxamide] | < 6.00 | > 30000
Cc1cc(NC(=O)c2c(C)c(C(=O)C(=O)N[C@H](C(=O)O)[C@H](C)O)n(C)c2C)ccc1F [Example 51, (2-(4-((4-fluoro-3-methylphenyl)carbamoyl)-1,3,5-trimethyl-1H-pyrrol-2-yl)-2-oxoacetyl)-L-allothreonine] | 6.30 to 7.30 | > 30000
Cc1cc(NC(=O)c2c(C)c(C(=O)C(=O)N[C@@H](C(=O)O)[C@@H](C)O)n(C)c2C)ccc1F [Example 52, (2-(4-((4-fluoro-3-methylphenyl)carbamoyl)-1,3,5-trimethyl-1H-pyrrol-2-yl)-2-oxoacetyl)-D-allothreonine] | < 6.00 | > 30000
Cc1cc(NC(=O)c2c(C)c(C(=O)C(=O)N3CCC(O)C(C)(C)C3)n(C)c2C)ccc1F (stereo not drawn) [Example 53, N-(4-fluoro-3-methylphenyl)-5-(2-(4-hydroxy-3,3-dimethylpiperidin-1-yl)-2-oxoacetyl)-1,2,4-trimethyl-1H-pyrrole-3-carboxamide] | 6.30 to 7.30 | > 30000
Cc1cc(NC(=O)c2c(C)c(C(=O)C(=O)N[C@H](CO)C(N)=O)n(C)c2C)ccc1F [Example 54, (R)-5-(2-((1-amino-3-hydroxy-1-oxopropan-2-yl)amino)-2-oxoacetyl)-N-(4-fluoro-3-methylphenyl)-1,2,4-trimethyl-1H-pyrrole-3-carboxamide] | 6.30 to 7.30 | > 30000
COC(=O)[C@@H](NC(=O)C(=O)c1c(C)c(C(=O)Nc2ccc(F)c(C)c2)c(C)n1C)C1CCCCC1 [Example 55, methyl (S)-2-cyclohexyl-2-(2-(4-((4-fluoro-3-methylphenyl)carbamoyl)-1,3,5-trimethyl-1H-pyrrol-2-yl)-2-oxoacetamido)acetate] | 6.00 to 6.30 | 500 to 4990

— patent publication US20190375708A1 (VenatoRx Pharmaceuticals, Inc., priority 2018, published 2019)
